# Assay results from patent US20260315612A1, “Topoisomerase Inhibitors, Methods of Making, and Methods of Use Thereof” (NJ Bio, Inc., priority 2023, published 2026).
# Tested on: SKBR-3 cell line (human breast cancer)
# Test: Cytotoxicity Assay (Cell titer glo, 72 h), SKBR-3
# Assay type: cell-based
# Conditions: for IC50: Homo sapiens, SK-BR-3, free payloads, 72 hours; for Normalized IC50 (PL IC50/DXD IC50): ratio of payload IC50 to DXD control IC50
# Protocol: Day 1: 2,000 cells/well were plated and incubated at 37° C. overnight.
# Day 2: Payload/ADC/vehicle control dilutions were made in respective media and added to cells. Volume added: 50 uL to each well. Starting treatment concentration was 1 mM for free payloads/1 μM for ADC's/10% for vehicle control and then diluted 10-fold down for a total of 11 treatment dilutions. Each concentration was analyzed in triplicates. Media-only wells were used as a control to calculate percent viability.
# Day 5: Cell titer glow reagent (volume: 50 uL) was added to each well, the plate was shaken for 5 mins and the luminescence was recorded. Drug Treatment Time: 72 hours. Data Analysis: Percent viability was calculated by dividing the luminescence signal obtained for each treated well by the untreated well (media-only control) and multiplying by 100. Data was next transformed using X=Log (x) and then analyzed with nonlinear regression (curve fit), Dose Response inhibition−log (inhibitor) vs response (3 parameters) using PRISM software to determine the IC50 value.
Structure (SMILES),IC50 [nM],Normalized IC50 (PL IC50/DXD IC50)
CC[C@@]1(O)C(=O)OCc2c1cc1n(c2=O)Cc2c-1nc1cc(F)c(C)cc1c2Cn1cc(CCCN)nn1 [Payload 53],18,3.60
CC[C@@]1(O)C(=O)OCc2c1cc1n(c2=O)Cc2c-1nc1cc(F)c(C)cc1c2Cn1cc(C(C)(C)NC(=O)CO)nn1 [Payload 69],95.8,104.13
CC[C@@]1(O)C(=O)OCc2c1cc1n(c2=O)Cc2c-1nc1cc(F)c(C)cc1c2Cn1cc(-c2ccc(NC(=O)CN)cc2)nn1 [Payload 67],9.15,0.60
CC[C@@]1(O)C(=O)OCc2c1cc1n(c2=O)Cc2c-1nc1cc(F)c(C)cc1c2Cn1nncc1CN [Payload 8],16.5,1.84
CC[C@@]1(O)C(=O)OCc2c1cc1n(c2=O)Cc2c-1nc1cc(F)c(C)cc1c2Cn1cc(CN2CCOC(CN)C2)nn1 (stereo partly drawn) [Payload 58],30.5,23.79
CC[C@@]1(O)C(=O)OCc2c1cc1n(c2=O)Cc2c-1nc1cc(F)c(C)cc1c2Cn1cc(CCO)nn1 [Payload 39],4.63,0.92
CC[C@@]1(O)C(=O)OCc2c1cc1n(c2=O)Cc2c-1nc1cc(F)c(C)cc1c2Cn1cc(-c2ccc(N)cc2)nn1 [Payload 13],30.8,6.84
CC[C@@]1(O)C(=O)OCc2c1cc1n(c2=O)Cc2c-1nc1cc(F)c(C)cc1c2Cn1nnc(CO)c1CO [Payload 12],374,41.69
CC[C@@]1(O)C(=O)OCc2c1cc1n(c2=O)Cc2c-1nc1cc(F)c(C)cc1c2Cn1cc(CN2CCOC(CNC(=O)CO)C2)nn1 (stereo partly drawn) [Payload 62],2040,1714.88
CC[C@@]1(O)C(=O)OCc2c1cc1n(c2=O)Cc2c-1nc1cc(F)c(C)cc1c2Cn1cc(-c2cccc(N)n2)nn1 [Payload 48],40.2,
CC[C@@]1(O)C(=O)OCc2c1cc1n(c2=O)Cc2c-1nc1cc(F)c(C)cc1c2Cn1cc(C(C)O)nn1 (stereo partly drawn) [Payload 11],194,45.22
CC[C@@]1(O)C(=O)OCc2c1cc1n(c2=O)Cc2c-1nc1cc(F)c(C)cc1c2Cn1cc(C2(NC(=O)CO)CC2)nn1 [Payload 63],41,44.21
CC[C@@]1(O)C(=O)OCc2c1cc1n(c2=O)Cc2c-1nc1cc(F)c(C)cc1c2Cn1cc(C(C)NC(=O)CO)nn1 (stereo partly drawn) [Payload 64],20.6,22.21
CC[C@@]1(O)C(=O)OCc2c1cc1n(c2=O)Cc2c-1nc1cc(F)c(C)cc1c2Cn1cc(-c2ccccc2NC(=O)CN)nn1 [Payload 66],54.7,3.58
CC[C@@]1(O)C(=O)OCc2c1cc1n(c2=O)Cc2c-1nc1cc(F)c(C)cc1c2Cn1cc(CCN)nn1 [Payload 36],1010,203.63
CC[C@@]1(O)C(=O)OCc2c1cc1n(c2=O)Cc2c-1nc1cc(F)c(C)cc1c2Cn1cc(CCCO)nn1 [Payload 59],4.03,4.84
CC[C@@]1(O)C(=O)OCc2c1cc1n(c2=O)Cc2c-1nc1cc(F)c(C)cc1c2Cn1cc(CNC)nn1 [Payload 6],690,94.92
CC[C@@]1(O)C(=O)OCc2c1cc1n(c2=O)Cc2c-1nc1cc(F)c(C)cc1c2Cn1cc(-c2cccnc2N)nn1 [Payload 49],8.14,1.30
CC[C@@]1(O)C(=O)OCc2c1cc1n(c2=O)Cc2c-1nc1cc(F)c(C)cc1c2Cn1cc(CCNC)nn1 [Payload 37],50.8,3.32
CC[C@@]1(O)C(=O)OCc2c1cc1n(c2=O)Cc2c-1nc1cc(F)c(C)cc1c2Cn1cc(-c2cccc(N)c2)nn1 [Payload 16],38.5,8.55
CC[C@@]1(O)C(=O)OCc2c1cc1n(c2=O)Cc2c-1nc1cc(F)c(C)cc1c2Cn1cc(C(C)N)nn1 (stereo partly drawn) [Payload 50],18.6,3.72
CC[C@@]1(O)C(=O)OCc2c1cc1n(c2=O)Cc2c-1nc1cc(F)c(C)cc1c2Cn1cc(-c2ccc(NC(=O)CO)cc2)nn1 [Payload 15],25.8,27.79
CC[C@@]1(O)C(=O)OCc2c1cc1n(c2=O)Cc2c-1nc1cc(F)c(C)cc1c2Cn1cc(-c2cc(F)cnc2N)nn1 [Payload 46],3.68,0.24
CC[C@@]1(O)C(=O)OCc2c1cc1n(c2=O)Cc2c-1nc1cc(F)c(C)cc1c2Cn1cc(CN2CCNCC2)nn1 [Payload 22],102,20.02

Structure (SMILES),IC50 [nM],Normalized IC50 (PL IC50/DXD IC50)
CC[C@@]1(O)C(=O)OCc2c1cc1n(c2=O)Cc2c-1nc1cc(F)c(C)cc1c2Cn1cc(-c2ccc(N)nc2)nn1 [Payload 52],18,2.88
CC[C@@]1(O)C(=O)OCc2c1cc1n(c2=O)Cc2c-1nc1cc(F)c(C)cc1c2Cn1cc(CCNC(=O)CO)nn1 [Payload 38],34.6,37.23
CC[C@@]1(O)C(=O)OCc2c1cc1n(c2=O)Cc2c-1nc1cc(F)c(C)cc1c2Cn1cc(CCCNC(=O)CO)nn1 [Payload 68],17.6,19.01
CC[C@@]1(O)C(=O)OCc2c1cc1n(c2=O)Cc2c-1nc1cc(F)c(C)cc1c2Cn1cc(CNC(=O)CO)nn1 [Payload 7],1830,203.99
CC[C@@]1(O)C(=O)OCc2c1cc1n(c2=O)Cc2c-1nc1cc(F)c(C)cc1c2Cn1cc(CN)nn1 [Payload 5],81.5,18.99
CC[C@@]1(O)C(=O)OCc2c1cc1n(c2=O)Cc2c-1nc1cc(F)c(C)cc1c2Cn1cc(C2CCCN2)nn1 (stereo partly drawn) [Payload 57],18.3,12.80
CC[C@@]1(O)C(=O)OCc2c1cc1n(c2=O)Cc2c-1nc1cc(F)c(C)cc1c2Cn1cc(CN2CCCCC2CO)nn1 (stereo partly drawn) [Payload 54],8.94,6.24
CC[C@@]1(O)C(=O)OCc2c1cc1n(c2=O)Cc2c-1nc1cc(F)c(C)cc1c2Cn1nncc1CCO [Payload 65],134,18.50
CC[C@@]1(O)C(=O)OCc2c1cc1n(c2=O)Cc2c-1nc1cc(F)c(C)cc1c2Cn1cc(CN2CCN(C(=O)CO)CC2)nn1 [Payload 60],284,338.2
CC[C@@]1(O)C(=O)OCc2c1cc1n(c2=O)Cc2c-1nc1cc(F)c(C)cc1c2Cn1cc(CN2CCCC(N)C2)nn1 (stereo partly drawn) [Payload 33],32.9,22.96
CC[C@@]1(O)C(=O)OCc2c1cc1n(c2=O)Cc2c-1nc1cc(F)c(C)cc1c2Cn1cc(-c2ccccc2N)nn1 [Payload 19],22.4,4.96
CC[C@@]1(O)C(=O)OCc2c1cc1n(c2=O)Cc2c-1nc1cc(F)c(C)cc1c2Cn1cc(CN2CCC(CO)CC2)nn1 [Payload 23],1250,199.52
CC[C@@]1(O)C(=O)OCc2c1cc1n(c2=O)Cc2c-1nc1cc(F)c(C)cc1c2Cn1cc(CNC(=O)OC(C)(C)C)nn1 [Payload 4],126,14.03
CC[C@@]1(O)C(=O)OCc2c1cc1n(c2=O)Cc2c-1nc1cc(F)c(C)cc1c2Cn1nncc1CO [Payload 3],107,11.97
CC[C@@]1(O)C(=O)OCc2c1cc1n(c2=O)Cc2c-1nc1cc(F)c(C)cc1c2Cn1cc(COCCN)nn1 [Payload 55],25.2,17.60
CC[C@@]1(O)C(=O)OCc2c1cc1n(c2=O)Cc2c-1nc1cc(F)c(C)cc1c2Cn1cc(CNC(=O)CN)nn1 [Payload 32],336,21.94
CC[C@@]1(O)C(=O)OCc2c1cc1n(c2=O)Cc2c-1nc1cc(F)c(C)cc1c2Cn1cc(CN2CCCC(CO)C2)nn1 (stereo partly drawn) [Payload 56],10.1,7.05
CC[C@@]1(O)C(=O)OCc2c1cc1n(c2=O)Cc2c-1nc1cc(F)c(C)cc1c2Cn1cc(C2CCCN2C(=O)CO)nn1 (stereo partly drawn) [Payload 61],211,177.62
CC[C@@]1(O)C(=O)OCc2c1cc1n(c2=O)Cc2c-1nc1cc(F)c(C)cc1c2Cn1nncc1CNC [Payload 9],94.6,13.01
CC[C@@]1(O)C(=O)OCc2c1cc1n(c2=O)Cc2c-1nc1cc(F)c(C)cc1c2Cn1cc(CO)nn1 [Payload 2],80.9,9.01
CC[C@@]1(O)C(=O)OCc2c1cc1n(c2=O)Cc2c-1nc1cc(F)c(C)cc1c2Cn1cc(C(C)(C)N)nn1 [Payload 51],15.3,3.05
CC[C@@]1(O)C(=O)OCc2c1cc1n(c2=O)Cc2c-1nc1cc(F)c(C)cc1c2Cn1cc(COC2CCCCO2)nn1 (stereo partly drawn) [Payload 1],77.8,8.67
CC[C@@]1(O)C(=O)OCc2c1cc1n(c2=O)Cc2c-1nc1cc(F)c(C)cc1c2Cn1cc(C2(N)CC2)nn1 [Payload 47],33.2,4.86
